Experiments:
[1] = test system: hiPSC derived 3D neural culture; experiment: Local field potential recordings of hiPSC-derived 3D neural culture with activity inhibitors; format: cell-based, human; settings: for spontaneous and inducible activity (LFP): CNQX 50 μM, AP5 250 μM together
[2] = test system: primary murine striatal neurons, astrocytes, and microglia; experiment: 3D tri-culture intracerebral hemorrhage model with necrostatin-1 treatment; format: cell-based, mouse; settings: for total cell number / DNA content (DNA quantification): nec-1 conditions, 24 hour; for ROS / reactive species level vs untreated samples: nec-1 groups, 4 hours post-injury, 250 mol/mL nec-1 for 15 minutes prior to injury
Protocol: Hemorrhage injuries were performed at the Neuroscience Center at Massachusetts General Hospital. Samples were transported to the Center, incubated for one hour at 37° C., and then injected with 10 μL of mouse blood and incubated for another hour before being returned to the Tufts University Biomedical Engineering Department. Samples were evaluated at 4 and 24 hours post-injury. For necrostatin-1 treatment, samples were incubated with […] necrostatin-1 for 15 minutes prior to performing a hemorrhage injury.
For all studies, groups included: untreated controls, sham, sham plus nec-1 treatment, hemorrhage (ICH) or ICH plus nec-1 treatment samples.
Cell viability was assessed with a Live/Dead assay, which uses a mixture of calcein and propidium iodide stains (1.2 μL of calcein (reconstituted in DMSO) and 10 μL of propidium iodide (“PI”) per 1 mL of final stain solution). Samples were washed with PBS 2-3 times and any remaining PBS was aspirated. Sponges were transferred to a 96 well plate, 100 μL of calcein/PI stain solution was added to each sample, and they were incubated at 37° C., covered in aluminum foil for 30 minutes. The stain solution was then aspirated, samples were washed with PBS 2-3 times, and then imaged using a confocal microscop with lasers of wavelengths of […] (to detect calcein staining) and […] (to detect PI staining).
DNA was quantified using a PicoGreen assay. To prepare samples for DNA quantification, they were first washed once with PBS, followed by addition of 100 μL of 0.05% Triton-X to cover the sponge. Samples were stored at −20° C. until use. For measurements, samples were thawed at room temperature and homogenized with scissors. Supernatant was collected and placed in a tube, on ice. Enough 1×TE Buffer needed for a dilution of 100 μL 1×TE buffer and 200 μL supernatant for each sample was prepared, and 4 mL of 1×TE buffer was prepared for the standards. 20×TE buffer was diluted 1:20 in diH20 to get 1×TE buffer. 1×TE buffer was then mixed with sample supernatants in separate 1.5 mL tubes. 100 μL of each sample was added to a 96-well plate, in triplicate. Standards were prepared by mixing the DNA working solution and the TE buffer to create 400 μL solutions with the following DNA concentrations: 2000 ng/mL, 1000 ng/mL, 500 ng/mL, 200 ng/mL, 100 ng/mL, 50 ng/mL, 20 ng/mL, and 0 ng/mL. Once samples were ready for analysis and the fluorescence plate reader was warmed and ready, PicoGreen stain was added to each sample. PicoGreen stain was prepared by making a 200-fold dilution of the stock PicoGreen stain in 1×TE Buffer for a final volume of 100 μL per sample plus 30%. The PicoGreen solution was protected from light and 100 μL of the diluted PicoGreen solution was added to each sample, then incubated at room temperature for 2-3 minutes. Fluorescence of samples was read using a plate-reader with 485 nm excitation and 538 nm emission. Fluorescence readings were converted into cell counts by using standard calculations to determine DNA content of each sample, which was then divided by 5.5 pg, which is the average mass of DNA in neurons (Moroz and Kohn 2013).
LDH assays were run on all samples and standards in duplicate, using a commercially available kit. An NADH standard was prepared using the stock NADH standard solution and the LDH assay buffer to achieve 50 μL each of the following concentrations: 0, 2.5, 5, 7.5, 10, and 12.5 nmole per 50 μL. 500 μL of LDH assay buffer was added to each sample for every 100 mg of tissue and samples were then homogenized with scissors, on ice, prior to centrifuging for 15 min at 10,000 xg and 4° C. 50 μL of the supernatant was added into wells in a 96 well plate (in duplicate) and LDH buffer was added to a total volume of 50 μL per well. For each reaction (sample and standards), 2 μL of LDH substrate mix was added to 48 μL of LDH assay buffer to create a Master Reaction Mix. 50 µL of reaction mix was added to each well and contents were mixed by pipetting up and down. […]

microglia [3] = experiment: Suppression of microglia in 2D primary astrocytic cultures; format: cell-based, mice
Source text: In addition to primary microglia, an immortalized microglial cell line (N9) was also used. It was noted that this line has a fast proliferation rate and appeared to suppress neuronal cultures, so primary cell lines were maintained as a source of microglia. In general, it is thought that microglia inhibit growth of astrocytic populations. Microglia proliferation is strictly regulated by colony-stimulating factor 1 and its receptor on microglia membranes. Without wishing to be held to a particular theory, it was contemplated that if the receptor for CSF1 growth factor was inhibited, the growth of microglia in astrocytic population would be inhibited. Accordingly, a 2 week experiment was performed in two dimensional (2D) culture conditions to see if microglial growth could be inhibited. For this experiment, the glial media that was supplied with 1 uM supplement of CSF1R inhibitors was used. Media was changed every second day in 96 well plates with 10.000 mice primary astrocytic cultures. […] Number of microglia was determined in cells treated with CSF1R inhibitor or control (FIG. 1, panel N) and further evaluated via WST-1 assay (FIG. 1, panel O).

microglia [4] = experiment: Microglia activation with LPS treatment; format: cell-based, rat/mouse; settings: 100 ng/mL LPS; 3 days
Protocol: DAPI was used as a nuclear counterstain. Microglia were also assessed for their ability to activate upon or following treatment with lipopolysaccharide (LPS) (FIG. 1, panel G), and further analyzed post-treatment for expression of inducible nitric oxide synthase (iNOS) (FIG. 1, panel H) and interleukin 1-beta (IL1-beta) (FIG. 1, panel I). Microglia activation ability with LPS (lipopolysaccharide) treatment was performed with 100 ng/mL of LPS to activate microglia cells (20,000 cells per well, 96 well plate).

Question: How did the “activity (LFP)” value [1] turn out when `NC1=N[C@H](O)[C@H]2[C@H]3O[C@]4(O)O[C@@H]([C@@H](O)[C@@]2(N1)[C@@H]4O)[C@]3(O)CO` [TTX, tetrodotoxin] was run?
Answer: blocked

Question: For `N[C@H](CCCP(=O)(O)O)C(=O)O` [AP-5, (2R)-amino-5-phosphonopentanoate], which “spontaneous and inducible activity (LFP)” value [1] is on record?
Answer: partially blocked

Question: For `CN1C(=O)C(Cc2c[nH]c3ccccc23)NC1=S` (centres unmarked) [necrostatin-1, Necrostatin-1], which “reactive species (ROS-RNS assay), differences between groups” value ([2]; 24 hours post-injury) is on record?
Answer: No significant differences

Question: And the “LDH activity vs the two sham groups” value ([2]; ICH+nec-1)?
Answer: statistically higher levels of LDH activity

Question: What about the LDH activity ([2]; ICH+nec-1 vs ICH, 24 hours) of the same molecule?
Answer: slightly lower level

Question: What about the “reactive species (ROS-RNS assay)” value ([2]; Sham+nec-1 compared to sham alone) of the same molecule?
Answer: significantly lower level of reactive species

Question: And the “total cell number / DNA content (DNA quantification)” value [2]?
Answer: higher DNA content

Question: What about the “total cell number / DNA content (DNA quantification)” value ([2]; listed as nec-1) of the same molecule?
Answer: significantly more cells were counted in nec-1 conditions

Question: And the “ROS / reactive species level vs untreated samples” value [2]?
Answer: statistically significant decrease in the amount of reactive species

Question: What about the “ROS / reactive species level vs untreated samples” value ([2]; listed as nec-1) of the same molecule?
Answer: significantly lower ROS levels

Question: What about the “cell count and viability” value ([2]; sham+nec-1, 24 hours) of the same molecule?
Answer: highest cell count and viability after 24 hours

Question: With `O=P(O)(O)C(Cl)(Cl)P(=O)(O)O` [clodronic acid] as the molecule, how does the “suitability to suppress microglial growth and activity” value (microglia [3]) read?
Answer: found unacceptable

Question: For `N#Cc1cc2c(cc1[N+](=O)[O-])=NC(=O)C(=O)N=2` [CNQX, 6-cyano-7-nitroquinoxaline-2,3-dione], which “spontaneous and inducible activity (LFP)” value [1] is on record?
Answer: partially blocked

Question: How did the microglia activation (microglia [4]) turn out when lipopolysaccharide [LPS] was run?
Answer: efficient to activate microglia
